Assays:
Assay in all cases: relative viability (nuclei count vs DMSO), 5 days (fraction); higher = more cells survive
NCI-H23 = system: NCI-H23
How it was run: (§1)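 Cells from lung cancer lines were seeded into 1536-well plates and, one day later, dosed by pin tool. Treatments were either a single drug or a fixed dose of an anchor drug with five library-drug doses (not always all listed) in √10 steps. After 5 days, nuclei were stained in a one-step fixation (final 0.05% Triton X-100, 1% formaldehyde, 1 ug/ml Hoechst) and counted on 4× images, and relative viability is the treated-to-vehicle nuclei ratio, as the median of duplicate plates.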

NCI-H1792 = system: NCI-H1792
How it was run: as §1

NCI-H1666 = system: NCI-H1666
How it was run: as §1

A-427 = system: A-427
How it was run: as §1

NCI-H596 = system: NCI-H596
How it was run: as §1

HARA = system: HARA
How it was run: as §1

SW 900 = system: SW 900
How it was run: as §1

HCC-44 = system: HCC-44
How it was run: as §1

NCI-H2342 = system: NCI-H2342
How it was run: as §1

HCC-15 = system: HCC-15
How it was run: as §1

COR-L23 = system: COR-L23
How it was run: as §1

NCI-H838 = system: NCI-H838
How it was run: as §1

NCI-H1650 = system: NCI-H1650
How it was run: as §1

NCI-H441 = system: NCI-H441
How it was run: as §1

HCC-827 = system: HCC-827
How it was run: as §1

EKVX = system: EKVX
How it was run: as §1

NCI-H1437 = system: NCI-H1437
How it was run: as §1

SK-MES-1 = system: SK-MES-1
How it was run: as §1

BEN = system: BEN
How it was run: as §1

NCI-H650 = system: NCI-H650
How it was run: as §1

NCI-H1975 = system: NCI-H1975
How it was run: as §1

NCI-H358 = system: NCI-H358
How it was run: as §1

201T = system: 201T
How it was run: as §1

For `O=c1cc(-c2cccc3c2Sc2ccccc2S3)oc(N2CCOCC2)c1` + O=C(c1cc(Cc2n[nH]c(=O)c3ccccc23)ccc1F)N1CCN(C(=O)C2CC2)CC1 [Olaparib] (partner 8 µM), the relative viability (NCI-H23; first compound 0.08 µM) was 0.313, the relative viability (NCI-H23; first compound 0.253 µM) was 0.309 and the relative viability (NCI-H23; first compound 0.8 µM) was 0.24. The relative viability (NCI-H23; first compound 2.53 µM) was 0.269, the relative viability (NCI-H23; first compound 8 µM) was 0.268 and the relative viability (NCI-H1792; first compound 0.08 µM) was 0.384. For the same compound, the relative viability (NCI-H1792; first compound 0.253 µM) was 0.352, the relative viability (NCI-H1792; first compound 0.8 µM) was 0.341 and the relative viability (NCI-H1792; first compound 2.53 µM) was 0.321. The relative viability (NCI-H1792; first compound 8 µM) was 0.286, the relative viability (NCI-H1666; first compound 0.08 µM) was 0.691 and the relative viability (NCI-H1666; first compound 0.253 µM) was 0.733. The relative viability (NCI-H1666; first compound 0.8 µM) was 0.681, the relative viability (NCI-H1666; first compound 2.53 µM) was 0.691 and the relative viability (NCI-H1666; first compound 8 µM) was 0.671. For the same compound, the relative viability (A-427; first compound 0.08 µM) was 0.7, the relative viability (A-427; first compound 0.253 µM) was 0.776 and the relative viability (A-427; first compound 0.8 µM) was 0.637. It also gave a relative viability (A-427; first compound 2.53 µM) of 0.684, a relative viability (A-427; first compound 8 µM) of 0.777 and a relative viability (NCI-H596; first compound 0.08 µM) of 0.664. For the same compound, the relative viability (NCI-H596; first compound 0.253 µM) was 0.631, the relative viability (NCI-H596; first compound 0.8 µM) was 0.504 and the relative viability (NCI-H596; first compound 2.53 µM) was 0.587. For the same compound, the relative viability (NCI-H596; first compound 8 µM) was 0.585, the relative viability (HARA; first compound 0.08 µM) was 1.13 and the relative viability (HARA; first compound 0.253 µM) was 0.711. For the same compound, the relative viability (HARA; first compound 0.8 µM) was 0.774, the relative viability (HARA; first compound 2.53 µM) was 0.629 and the relative viability (HARA; first compound 8 µM) was 0.777. It also gave a relative viability (SW 900; first compound 0.253 µM) of 0.999, a relative viability (SW 900; first compound 0.8 µM) of 0.824 and a relative viability (SW 900; first compound 2.53 µM) of 0.702. The relative viability (SW 900; first compound 8 µM) was 0.773, the relative viability (HCC-44; first compound 0.08 µM) was 0.927 and the relative viability (HCC-44; first compound 0.253 µM) was 1.02. The relative viability (HCC-44; first compound 0.8 µM) was 0.972, the relative viability (HCC-44; first compound 2.53 µM) was 1.02 and the relative viability (HCC-44; first compound 8 µM) was 0.951. The relative viability (NCI-H2342; first compound 0.08 µM) was 0.52, the relative viability (NCI-H2342; first compound 0.253 µM) was 0.419 and the relative viability (NCI-H2342; first compound 0.8 µM) was 0.476. For the same compound, the relative viability (NCI-H2342; first compound 2.53 µM) was 0.471, the relative viability (NCI-H2342; first compound 8 µM) was 0.423 and the relative viability (HCC-15; first compound 0.08 µM) was 0.756. The relative viability (HCC-15; first compound 0.253 µM) was 0.772, the relative viability (HCC-15; first compound 0.8 µM) was 0.707 and the relative viability (HCC-15; first compound 2.53 µM) was 0.654. For the same compound, the relative viability (HCC-15; first compound 8 µM) was 0.485, the relative viability (COR-L23; first compound 0.08 µM) was 0.35 and the relative viability (COR-L23; first compound 0.253 µM) was 0.395. The relative viability (COR-L23; first compound 0.8 µM) was 0.351, the relative viability (COR-L23; first compound 2.53 µM) was 0.362 and the relative viability (COR-L23; first compound 8 µM) was 0.351. It also gave a relative viability (NCI-H838; first compound 0.08 µM) of 0.9, a relative viability (NCI-H838; first compound 0.253 µM) of 1.1 and a relative viability (NCI-H838; first compound 0.8 µM) of 0.752. For the same compound, the relative viability (NCI-H838; first compound 2.53 µM) was 0.715, the relative viability (NCI-H838; first compound 8 µM) was 0.546 and the relative viability (NCI-H1650; first compound 0.08 µM) was 0.702. The relative viability (NCI-H1650; first compound 0.253 µM) was 0.8, the relative viability (NCI-H1650; first compound 0.8 µM) was 0.53 and the relative viability (NCI-H1650; first compound 2.53 µM) was 0.782. For the same compound, the relative viability (NCI-H1650; first compound 8 µM) was 0.734, the relative viability (NCI-H441; first compound 0.08 µM) was 0.603 and the relative viability (NCI-H441; first compound 0.253 µM) was 0.708. The relative viability (NCI-H441; first compound 0.8 µM) was 0.518, the relative viability (NCI-H441; first compound 2.53 µM) was 0.461 and the relative viability (NCI-H441; first compound 8 µM) was 0.432. It also gave a relative viability (HCC-827; first compound 0.08 µM) of 0.621, a relative viability (HCC-827; first compound 0.253 µM) of 0.716 and a relative viability (HCC-827; first compound 0.8 µM) of 0.677. The relative viability (HCC-827; first compound 2.53 µM) was 0.588, the relative viability (HCC-827; first compound 8 µM) was 0.768 and the relative viability (EKVX; first compound 0.08 µM) was 0.829. It also gave a relative viability (EKVX; first compound 0.253 µM) of 0.852, a relative viability (EKVX; first compound 0.8 µM) of 0.623 and a relative viability (EKVX; first compound 2.53 µM) of 0.803. For the same compound, the relative viability (EKVX; first compound 8 µM) was 1.05, the relative viability (NCI-H1437; first compound 0.08 µM) was 0.618 and the relative viability (NCI-H1437; first compound 0.253 µM) was 0.785. The relative viability (NCI-H1437; first compound 0.8 µM) was 0.684, the relative viability (NCI-H1437; first compound 2.53 µM) was 0.615 and the relative viability (NCI-H1437; first compound 8 µM) was 0.541. The relative viability (SK-MES-1; first compound 0.08 µM) was 0.756, the relative viability (SK-MES-1; first compound 0.253 µM) was 0.892 and the relative viability (SK-MES-1; first compound 0.8 µM) was 0.708. For the same compound, the relative viability (SK-MES-1; first compound 2.53 µM) was 0.705, the relative viability (SK-MES-1; first compound 8 µM) was 0.467 and the relative viability (BEN; first compound 0.08 µM) was 0.998. It also gave a relative viability (BEN; first compound 0.253 µM) of 1.15, a relative viability (BEN; first compound 0.8 µM) of 1.04 and a relative viability (BEN; first compound 2.53 µM) of 0.956. The relative viability (BEN; first compound 8 µM) was 1.07, the relative viability (NCI-H650; first compound 0.08 µM) was 0.397 and the relative viability (NCI-H650; first compound 0.253 µM) was 0.402. It also gave a relative viability (NCI-H650; first compound 0.8 µM) of 0.424, a relative viability (NCI-H650; first compound 2.53 µM) of 0.378 and a relative viability (NCI-H650; first compound 8 µM) of 0.415. For the same compound, the relative viability (NCI-H1975; first compound 0.08 µM) was 0.831, the relative viability (NCI-H1975; first compound 0.253 µM) was 0.94 and the relative viability (NCI-H1975; first compound 0.8 µM) was 0.737. For the same compound, the relative viability (NCI-H1975; first compound 2.53 µM) was 0.666, the relative viability (NCI-H1975; first compound 8 µM) was 0.598 and the relative viability (NCI-H358; first compound 0.08 µM) was 0.636. The relative viability (NCI-H358; first compound 0.253 µM) was 0.676, the relative viability (NCI-H358; first compound 0.8 µM) was 0.589 and the relative viability (NCI-H358; first compound 2.53 µM) was 0.64. For the same compound, the relative viability (NCI-H358; first compound 8 µM) was 0.719, the relative viability (201T; first compound 0.08 µM) was 0.688 and the relative viability (201T; first compound 0.253 µM) was 0.909. It also gave a relative viability (201T; first compound 0.8 µM) of 0.861, a relative viability (201T; first compound 2.53 µM) of 0.84 and a relative viability (201T; first compound 8 µM) of 0.703.
